Assay results: patent publication US7531713B2, “Assay for toxin induced neuronal degeneration and viability in C. elegans” (Vanderbilt University, priority 2001, dated 2009)
Entries after “also recorded” stand apart in the source; their conditions may differ.

What was measured:
[1] = tested on: ASI chemosensory neurons; test: 6-OHDA exposure of ASI chemosensory neurons with or without transferred DAT-1; assay type: in vivo, C. elegans
From the text: FIGS. 6A, 6B, 6C & 6D. Transfer of the DAT gene product sensitizes non-DA neurons to 6-OHDA. (FIG. 6A), ASI chemosensory neurons made transgenic for a PDAF-7::GFP reporter to reveal these cells and their processes. (FIG. 6B), Worms in FIG. 6A treated with 6-OHDA. […] (FIG. 6C), A transgenic line where PDAF7::DAT1:GFP translational fusion is expressed in the ASI neurons, brining DAT-protein to these cells. (FIG. 6D), Animals in C, exposed to 6-OHDA.

[2] = tested on: C. elegans DA neurons; test: 6-OHDA assay: GFP signal in DA neurons of Pdat-1::GFP transgenic worms; assay type: in vivo; details: for Protection against 6-OHDA toxicity (GFP signal in DA neurons): coincubated with 6-OHDA, 10 mM test substance
Protocol: Synchronized cultures of nematodes were prepared by collecting gravid worms from one or two 100 mm 8P/NA22 plates, washing them 2 times in approximately 10 mls dH2O (2,000 rpm for 2 min), and incubating them in alkaline hypochlorite for 7-10 min. essentially as described (Emmons et al., 1979; Epstein and Shakes, 1995). Following the 17-24 hour incubation in M9 to obtain the synchronized L1's, the worms were washed once in 10 mls dH2O, spread on 8P/NA22 plates and incubated at 24° C. for 25-29 hours. The L3 larvae were collected, washed once or twice in dH2O, and added to the assay mix (to a final OD600 worms of 0.1-0.2) containing 10 mM ascorbic acid containing 10 or 50 mM 6-hydroxydopamine +/−10 mM d-amphetamine or 1 mM imipramine. The assay mix (1-2 mls) was incubated for 1 hour at 24° C., and mixed gently every 15 min. The worms were then washed in 0.5-1 ml dH2O as above and spread on NGM/OP50 plates. The worms were examined and scored 40-80 hours post-6-OHDA exposure on 2% agarose pads, using 2% NaN3 to immobilize them. For electron microscopy, the worms are fixed approximately 60 hours following exposure to 6-OHDA.
Scoring of the CEPs were performed by applying approximately 50-60 worms on the agar pad, and examined under a Zeiss M2 fluorescent dissecting scope. All 4 CEP dendrites were examined in each worm and the GFP fluorescence within the dendrites followed from the nerve ring to the tip of the nose. If any part of the dendrite was absent, the worm was considered to have altered CEPs. The DA neurons were examined in living animals using a Zeiss Axioskop with a planApo 40 and 63× objective and a Zeiss LSM410 confocal laser-scanning microscope.
Briefly, the worms are exposed to the neurotoxin (or any other candidate substance) dissolved in a liquid suspension prior to being replated on a solid plate.
Exposure to toxins is carried out by transferring the worms to a solution of water containing 10 mM Ascorbic Acid and 10-50 mM 6OHDA in a final volume of 600 μl. The worms are incubated for 1 hour at 22-24° C. with mixing in silica coated tubes. The exposing is stopped by dilution with 1 ml of water. The tube is then pulsed at 2000 rpm for 2 minutes, resuspended in water and the worms are spread on N6M plates ([…]) coated with OP50 E. coli, which the worms feed on.

[3] = target: T1, CeDAT (Caenorhabditis elegans, UniProt Q03614); details: mammalian cells expressing CeDAT, cited from earlier work; for Sensitivity of CeDAT-mediated DA transport to antagonists/substrates: potencies comparable to human DAT
T1 sequence (Q03614 1-615): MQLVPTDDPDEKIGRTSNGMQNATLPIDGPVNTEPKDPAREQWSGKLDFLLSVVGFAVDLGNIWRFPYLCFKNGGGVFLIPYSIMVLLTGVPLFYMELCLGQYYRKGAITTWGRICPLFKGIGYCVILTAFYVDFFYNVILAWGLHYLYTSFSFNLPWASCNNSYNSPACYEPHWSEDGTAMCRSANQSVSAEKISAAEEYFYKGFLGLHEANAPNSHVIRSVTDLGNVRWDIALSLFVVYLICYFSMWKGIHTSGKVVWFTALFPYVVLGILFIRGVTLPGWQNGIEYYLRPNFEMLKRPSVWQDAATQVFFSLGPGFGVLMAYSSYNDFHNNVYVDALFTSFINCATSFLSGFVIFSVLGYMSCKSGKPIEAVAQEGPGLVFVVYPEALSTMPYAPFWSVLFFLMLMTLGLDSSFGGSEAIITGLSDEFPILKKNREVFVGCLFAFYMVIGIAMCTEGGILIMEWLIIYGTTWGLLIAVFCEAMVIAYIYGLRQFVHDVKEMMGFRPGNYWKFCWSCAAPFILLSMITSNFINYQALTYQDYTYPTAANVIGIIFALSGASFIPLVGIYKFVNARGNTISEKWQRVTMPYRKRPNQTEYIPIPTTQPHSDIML

NCCc1cc(O)c(O)cc1O [6-OHDA, 6-hydroxydopamine]
Effect of 6-OHDA on ASI neurons expressing DAT-1 ([1]; PDAF7::DAT1:GFP translational fusion line (FIG. 6D)): conferred 6-OHDA sensitivity | Effect of 6-OHDA on ASI neurons lacking DAT-1 ([1]; PDAF-7::GFP reporter line (FIG. 6B)): little or no effect | Effect of 6-OHDA on GFP signal in DA neurons ([2]; 10 mM 6-OHDA for 1 hr, visualized 72 hrs later via confocal microscopy): various stages of apparent degeneration are evident | Effect of 6-OHDA on DA neurons / reporter expression ([2]; 10-50 mM 6-OHDA, 1 hour exposure, general statements): selectively degraded; also recorded: loss of reporter expression | Neuronal sensitivity to 6-OHDA as a function of time of exposure, dat-1 deletion strain ([2]; dat-1 mutant line (FIG. 5E)): protected | Effect of 6-OHDA on GFP signal in dat-1 deleted strain ([2]; reporter transgenic line produced in a dat-1 deleted strain (FIG. 5D)): failure of toxin to effect loss of GFP signal | Neuronal sensitivity to 6-OHDA as a function of time of exposure ([2]; wildtype reporter line, CEP neurons (FIG. 5E)): time dependent loss of CEP neurons

NCCc1ccc(O)c(O)c1 [DA, Dopamine]
Km ([3]; read-out: Km of Na+- and Cl--dependent DA transport): 1.2 µM

CNCCC(Oc1ccccc1OC)c1ccccc1 (stereo not shown) [nisoxetine]
Sensitivity of CeDAT-mediated DA transport to antagonists/substrates [3]: inhibited

C[C@H](N)Cc1ccccc1 [amphetamine, d-amphetamine]
Sensitivity of CeDAT-mediated DA transport to antagonists/substrates [3]: sensitive | Protection against 6-OHDA toxicity (GFP signal in DA neurons) [2]: prevents visible evidence of 6-OHDA toxicity

CN(C)CCCN1c2ccccc2CCc2ccccc21 [imipramine]
Sensitivity of CeDAT-mediated DA transport to antagonists/substrates [3]: inhibited | Protection against 6-OHDA toxicity (GFP signal in DA neurons) [2]: prevents visible evidence of 6-OHDA toxicity
